According to patent US20080145499A1, “Method for treating fruit or vegetables with phosphorous ions and corresponding compositions” (priority 2006, published 2008):
“And” between values parts separate entries of the source, which are not always exact repeats. Identical values can stand only once. Like-named read-outs stand apart in the source and are kept apart here.

What was measured:
Penicillium digitatum = assay: Washington oranges inoculated with Penicillium digitatum, eugenol/potassium phosphite; type: in vivo
Method: Washington oranges inoculated with Penicillium digitatum came into contact with a eugenol/potassium phosphite solution containing 1,100 ppm of eugenol and 1,600 ppm of potassium phosphite for 2 minutes at 38° C. and 48° C. The treated fruit was kept at 7° C. and then examined after 9 and 18 days. The fruit was compared with fruit treated with only eugenol in the same conditions and with inoculated fruits that had not been treated.

P. expansum = assay: Natural P. expansum infections in organic Elstar apples; type: in vivo
Description: 2—In vivo Study of the Activity of Phosphonic Acid (Kphos) on P. expansum Infections in Apples

[1] = system: strain of Penicillium digitatum resistant to imazalil; assay: Valencia oranges inoculated with Penicillium digitatum resistant to imazalil; type: in vivo; settings: 52° C., 2 minutes
Method: Valencia oranges inoculated with a strain of Penicillium digitatum resistant to imazalil were treated at 52° C. and were in contact for 2 minutes with: • 300 ppm imazalil; • 3,000 ppm potassium phosphite • the two products mixed in proportions of 300 ppm imazalil and 3,000 ppm potassium phosphite.

P. Digitatum [2] = assay: Natural P. digitatum infections in Navel oranges, comparison with three fungicides; type: in vivo; settings: Thermotherapy + phosphonic acid 2,000 ppm; SPC 3 days at ambient temperature
Description: 4—Efficacy of PA on P. digitatum Infections in Oranges. Comparison with a Mixture of Three Fungicides. All Treatments Were Combined with Thermotherapy

P. Digitatum [3] = system: P. Digitatum
Method: 5—Efficacy of PA on Natural P. digitatum Infections in Oranges Combined with Thermotherapy
(§1) A new experiment which took place under conditions very similar to those in real life was carried out: natural infections, storage in cold conditions, simulation of storage periods (SPC).

P. expansum spores = system: P. expansum spores
Description: 1—In vitro Study of the Activity of Phosphonic Acid on P. expansum

P. Digitatum [4] = assay: Navel oranges damaged and inoculated with P. digitatum, PA with Bioxeda and thermotherapy; type: in vivo; settings: 18 days, 48° C. 2 min
Method: 3—Efficacy of PA and Thermotherapy on P. digitatum Infections in Oranges
In this experiment, the oranges were damaged then inoculated with P. Digitatum (500,000 sp/mL) and treated 15 hours later; they were stored at 5° C.

oranges = settings: PA up to 4,000 ppm, with thermotherapy
Method: as §1

[5] = 3,000 ppm potassium phosphite, tests 1-4

## C=CCc1ccc(O)c(OC)c1 [eugenol, reference compound]
Penicillium digitatum; eugenol 1,100 ppm, 2 minutes at 38° C., kept at 7° C., after 9 days
  percentages of decayed fruit: 12%
Penicillium digitatum; eugenol 1,100 ppm, 2 minutes at 38° C., kept at 7° C., after 18 days
  percentages of decayed fruit: 73%
Penicillium digitatum; eugenol 1,100 ppm, 2 minutes at 48° C., kept at 7° C., after 9 days
  percentages of decayed fruit: 4%
Penicillium digitatum; eugenol 1,100 ppm, 2 minutes at 48° C., kept at 7° C., after 18 days
  percentages of decayed fruit: 60%

## Cc1cc(C)nc(Nc2ccccc2)n1 [Pyrimethanil]
P. expansum; 250 ppm, 2001-2002, 90 days
  % apples with symptoms: 4.1%
P. expansum; 250 ppm, 2001-2002, 180 days
  % apples with symptoms: 16.2%
P. expansum; 250 ppm, 2002-2003, 90 days
  % apples with symptoms: 4.0%
P. expansum; 250 ppm, 2002-2003, 180 days
  % apples with symptoms: 19.0%
P. expansum; 500 ppm, 2001-2002, 90 days
  % apples with symptoms: 3.2%
P. expansum; 500 ppm, 2001-2002, 180 days
  % apples with symptoms: 21.3%
P. expansum; 500 ppm, 2002-2003, 90 days
  % apples with symptoms: 0.0%
P. expansum; 500 ppm, 2002-2003, 180 days
  % apples with symptoms: 14.0%

## N#Cc1c[nH]cc1-c1cccc2c1OC(F)(F)O2 [Fluidoxonil]
P. expansum; 200 ppm, 2001-2002, 90 days
  % apples with symptoms: 1.1%
P. expansum; 200 ppm, 2001-2002, 180 days
  % apples with symptoms: 4.9%
P. expansum; 200 ppm, 2002-2003, 90 days
  % apples with symptoms: 4.0%
P. expansum; 200 ppm, 2002-2003, 180 days
  % apples with symptoms: 7.0%

## C=CCOC(Cn1ccnc1)c1ccc(Cl)cc1Cl (stereo not shown) [Imazalil, imazalil, reference compound]
[1]; 300 ppm imazalil
  Average % of decayed fruit: 42.5%

## potassium phosphite
Penicillium digitatum; potassium phosphite, 38° C., after 9 days
  percentages of decayed fruit: 14%
Penicillium digitatum; potassium phosphite, 38° C., after 18 days
  percentages of decayed fruit: 76%
Penicillium digitatum; potassium phosphite, 48° C., after 9 days
  percentages of decayed fruit: 3%
Penicillium digitatum; potassium phosphite, 48° C., after 18 days
  percentages of decayed fruit: 44%
[1]; 3,000 ppm potassium phosphite
  Average % of decayed fruit: 42.5%
[1]; [5]
  % of decayed fruit: 50% and 60% and 30%
  Number of fruit decayed: 5 and 6 and 3
  Number of fruit unaffected: 5 and 4 and 7

## O=[PH](O)O [PA, Phosphonic acid]
P. Digitatum [2]
  Oranges with symptoms 12 D 5 0C = 3 D SPC (1): 0.5
P. Digitatum [3]; 2,000 ppm, no thermotherapy
  % oranges with symptoms 15 D 5° C. + 5 D SPC: 6.0%
P. Digitatum [3]; 4,000 ppm combined with thermotherapy
  efficacy: 73.5%
P. Digitatum [3]; 4,000 ppm, no thermotherapy
  % oranges with symptoms 15 D 5° C. + 5 D SPC: 5.1%
P. Digitatum [3]; Thermotherapy (50° C. 3 min) + 2,000 ppm
  % oranges with symptoms 15 D 5° C. + 5 D SPC: 4.0%
P. Digitatum [3]; Thermotherapy (50° C. 3 min) + 4,000 ppm
  % oranges with symptoms 15 D 5° C. + 5 D SPC: 2.7%
P. expansum spores; 1,000 ppm (Kphos), 22° C., 24 hours
  Germinated spores: 27
P. expansum spores; 1,000 ppm (Kphos), 22° C., 48 hours
  Germinated spores: 34
P. expansum spores; 1,000 ppm (Kphos), 50° 2 min, 24 hours
  Germinated spores: 0
P. expansum spores; 1,000 ppm (Kphos), 50° 2 min, 48 hours
  Germinated spores: 21
P. expansum spores; 4,000 ppm (Kphos), 22° C., 24 hours
  Germinated spores: 11
P. expansum spores; 4,000 ppm (Kphos), 22° C., 48 hours
  Germinated spores: 11
P. expansum spores; 4,000 ppm (Kphos), 50° 2 min, 24 hours
  Germinated spores: 0
P. expansum spores; 4,000 ppm (Kphos), 50° 2 min, 48 hours
  Germinated spores: 0
P. expansum spores; ambient temperature, even at 4,000 ppm
  activity of PA: partial
P. expansum; 1,000 ppm - 50° C. 2 min, 2001-2002, 90 days
  % apples with symptoms: 0.0%
P. expansum; 1,000 ppm - 50° C. 2 min, 2001-2002, 180 days
  % apples with symptoms: 4.7%
P. expansum; 1,000 ppm - 50° C. 2 min, 2002-2003, 90 days
  % apples with symptoms: 0.0%
P. expansum; 1,000 ppm - 50° C. 2 min, 2002-2003, 180 days
  % apples with symptoms: 6.3%
P. expansum; 1,000 ppm, 2001-2002, 90 days after treatment, 2° C.
  % apples with symptoms: 3.1%
P. expansum; 1,000 ppm, 2001-2002, 180 days after treatment, 2° C.
  % apples with symptoms: 13.1%
P. expansum; 1,000 ppm, 2002-2003, 90 days after treatment, 2° C.
  % apples with symptoms: 4.9%
P. expansum; 1,000 ppm, 2002-2003, 180 days after treatment, 2° C.
  % apples with symptoms: 11.1%
P. expansum; PA at ambient temperature on P. expansum in apples
  activity in vivo: ~0
P. Digitatum [4]; Bioxeda + PA versus Bioxeda
  rate of decay, times lower in the presence of PA: 2.3 times
P. Digitatum [4]; eugenol 1.8 g/L + PA 1,000 ppm (Kphos), stored at 5° C.
  Oranges with symptoms: 26%
oranges
  phytotoxicity: No phytotoxicity
